Source: ChEMBL document CHEMBL5244244, “Fight against novel coronavirus: A perspective of medicinal chemists” (Eur J Med Chem, 2020)

Columns and labels:
[1] = Selectivity index, ratio of CC50 for African green monkey Vero E6 cells to EC50 for antiviral activity against SARS-CoV-2 2019BetaCoV/Wuhan/WIV04/2019; type: toxicity, Vero C1008; conditions: read-out: Selectivity Index
[2] = Cytotoxicity against African green monkey Vero E6 cells assessed as reduction of cell viability measured after 48 hrs by CCK-8 assay; type: toxicity, cell-based, Vero C1008; conditions: chlorocebus sabaeus
SARS-CoV-2 [3] = assay: Antiviral activity against SARS-CoV-2 2019BetaCoV/Wuhan/WIV04/2019 infected in African green monkey Vero E6 cells assessed as inhibition of viral replication measured after 48 hrs; type: functional, organism-based; conditions: Severe acute respiratory syndrome coronavirus 2, 2019BetaCoV/Wuhan/WIV04/2019, Vero C1008, 48 h
[4] = molecular target: Replicase polyprotein 1ab (Severe acute respiratory syndrome coronavirus 2, UniProt P0DTD1); assay: Inhibition of SARS-CoV-2 main protease
[5] = Selectivity index, ratio of CC50 for African green monkey Vero cells to EC50 for antiviral activity against SARS-CoV-2; type: toxicity; conditions: read-out: Selectivity Index
SARS-CoV-2 [6] = assay: Antiviral activity against SARS-CoV-2 infected in African green monkey Vero cells assessed as inhibition of viral replication; type: functional, organism-based; conditions: Severe acute respiratory syndrome coronavirus 2, Vero
[7] = Cytotoxicity against african green monkey Vero cells; type: toxicity, cell-based; conditions: chlorocebus sabaeus

With NC(=O)c1nc(F)c[nH]c1=O the selectivity ratio [1] was > 6.46 and the CC50 at 48 h [2] was > 400 µM.

For CCN(CC)CCCC(C)Nc1ccnc2cc(Cl)ccc12 (stereo not drawn) [CHLOROQUINE], the EC50 (SARS-CoV-2 [3]) was 1.13 µM and the CC50 at 48 h [2] was > 100 µM.

For Cc1cccc(C)c1OCC(=O)N[C@@H](Cc1ccccc1)[C@@H](O)C[C@H](Cc1ccccc1)NC(=O)[C@H](C(C)C)N1CCCNC1=O [LOPINAVIR], the IC50 [4] was 9.12 µM.

For N=C(N)c1ccc2cc(OC(=O)c3ccc(N=C(N)N)cc3)ccc2c1 [NAFAMOSTAT], the selectivity ratio [5] was 4.44, the EC50 (SARS-CoV-2 [6]) was 22.5 µM and the CC50 [7] was > 100 µM.

In the case of O=C(Nc1ccc([N+](=O)[O-])cc1Cl)c1cc(Cl)ccc1O [NICLOSAMIDE], the EC50 (SARS-CoV-2 [3]) is reported as 2.12 µM and the CC50 at 48 h [2] is reported as > 35.5 µM.

With Nc1nc2c(ncn2CCC(CO)CO)c(=O)[nH]1 [PENCICLOVIR] the selectivity ratio [1] was > 4.17 and the CC50 at 48 h [2] was > 400 µM.

For NC(=O)c1ncn([C@@H]2O[C@H](CO)[C@@H](O)[C@H]2O)n1 [RIBAVIRIN], the CC50 at 48 h [2] was > 400 µM.
